Test [1] relates to STC-1 cells. Particulars: 2 h.
Experimental: To assay for GLP-1 release activity, SEQ ID NO: 1 was dissolved in Dulbecco's phosphate buffered saline (D-PBS) at 10 mg/ml. This solution was diluted to between 0.002 and 4 mg/ml with D-PBS, then added to media of STC-1 cells (passage 25 to 28) in 1:1 ratio of D-PBS and Dulbecco's Modified Eagle's Medium (DMEM-high glucose) and incubated with the cells at 37° C. (99° F.) and a CO2 level of 5% for 2 hours. The solution containing SEQ ID NO: 1 was added to cells at a variety of concentrations ranging from 0.001 to 2 mg/ml to generate a dose-response curve.
Following the incubation period, concentrations of GLP-1 released by the STC-1 cells into the media were assayed using a commercially available immunoassay kit for GLP-1 detection from Phoenix Pharmaceuticals, Burlingame, CA (catalogue number EK-028-11). Assays were performed according to the manufacturer's instructions using a standard curve covering a range of concentrations from 0.4 to 1000 pg/well. Absorbance was measured at a wavelength of 450 nm.
GLP-1 quantities obtained from each tested concentration of SEQ ID NO: 1 were plotted vs. log concentration of peptide. A dose-response curve was then generated by fitting the data with a logistic function using OriginLab graphing software.
Each variant was assayed for GLP-1 activity at 2 mg/ml using the method described in Example 2.
For test [2], the system named is STC-1 cells. Particulars: 4 h.
Experimental: To assay for CCK release activity, SEQ ID NO: 1 was dissolved in Dulbecco's phosphate buffered saline (D-PBS) at 10 mg/ml. This solution was then diluted to between 0.002 and 4 mg/ml with d-PBS, then added to media of STC-1 cells (passage 25 to 28) in 1:1 ratio of D-PBS and Dulbecco's Modified Eagle's Medium (DMEM-high glucose) and incubated with the cells at 37° C. (99° F.) and a CO2 level of 5% for 4 hours. The solution containing SEQ ID NO: 1 was added to cells at a variety of concentrations ranging from 0.001 to 2 mg/ml to generate a dose-response curve.
Following the incubation period, concentrations of CCK released by STC-1 cells into the media were assayed using a commercially available immunoassay kit for CCK detection from Phoenix Pharmaceuticals, Burlingame, Calif. (catalogue number EK-069-04). Assays were performed according to the manufacturer's instructions using a standard curve covering a range of concentrations from 0.4 to 1000 pg/well. Absorbance was measured at a wavelength of 450 nm.
CCK quantities obtained from each tested concentration of SEQ ID NO: 1 were plotted vs. log concentration of peptide. A dose-response curve was then generated by fitting the data with a logistic function using OriginLab graphing software.
Each variant was assayed for CCK activity at 2 mg/ml using the method described in Example 1.

Like-named read-outs stand apart in the source and are kept apart here.

The results in this text go back to patent publication US20160002294A1, “NOVEL POLYPEPTIDES HAVING SATIETY HORMONE RELEASING ACTIVITY” (SOLAE LLC, priority 2013, published 2016).

Consider “H-TSLDFPALSWLRL-OH [SEQ ID NO: 1, NH2-TSLDFPALSWLRL-COOH]”, for which the EC50 (usually the concentration at which the effect is half-maximal) in the test with STC-1 cells [1] came to 186 µM; in the test with STC-1 cells [2], 43 µM.
